Measured values published in the supplement of paper PMC10627819.

Assays:
S. aureus Newman [1] = assay: fitness (endpoint OD595 vs no drug) (fraction); higher = more growth
Summary of the method: (§1)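 Bacterial growth was followed in 384-well plates seeded at OD595 0.01, with 30 µl per well, or 55 µl for S. pneumoniae, in TSB, LB Lennox or CY at 37 °C. OD595 was read every 30 min for 14 h, and each reading had the first reading subtracted as background. Fitness is the background-corrected optical density at entry into stationary phase divided by the robust mean of the no-drug control wells. This ratio is capped at 1.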

S. pneumoniae D39V [2] = assay: as above
Summary of the method: as §1

B. subtilis 168 [3] = assay: as above
Summary of the method: as §1

S. aureus Newman [4] = assay: Bliss interaction score (quartile over a dose matrix) (fitness difference); higher = more antagonism (negative = synergy)
Summary of the method: (§2)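 Quartiles summarise the Bliss score over technical, biological and donor/recipient replicates, where the score is observed minus expected fitness under a product model. Expected fitness uses single-drug values inferred from combination data. Fitness is OD595 at entry into stationary phase over the plate's robust no-drug mean, capped at 1.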

S. aureus DSM 20231 = assay: as above
Summary of the method: as §2

S. pneumoniae D39V [5] = assay: as above
Summary of the method: as §2

B. subtilis 168 [6] = assay: as above
Summary of the method: as §2
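Throughout, for Bliss interaction score (quartile over a dose matrix): first quartile when negative (synergy) and third quartile when positive (antagonism).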

CCCCCCCCCC(=O)N[C@@H](Cc1c[nH]c2ccccc12)C(=O)N[C@H](CC(N)=O)C(=O)N[C@@H](CC(=O)O)C(=O)N[C@@H]1C(=O)NCC(=O)N[C@@H](CCCN)C(=O)N[C@@H](CC(=O)O)C(=O)N[C@H](C)C(=O)N[C@@H](CC(=O)O)C(=O)NCC(=O)N[C@H](CO)C(=O)N[C@@H]([C@H](C)CC(=O)O)C(=O)N[C@@H](CC(=O)c2ccccc2N)C(=O)O[C@@H]1C [Daptomycin] + CN(C)c1cc(NC(=O)CNC(C)(C)C)c(O)c2c1C[C@H]1C[C@H]3[C@H](N(C)C)C(O)=C(C(N)=O)C(=O)[C@@]3(O)C(O)=C1C2=O [Tigecycline]
fitness
Conditions | first compound 0.125 µg/mL | first compound 0.25 µg/mL | first compound 0.5 µg/mL | first compound 1 µg/mL | first compound 2 µg/mL | first compound 4 µg/mL
B. subtilis 168 [3], partner 0.039 µg/mL | 0.929 | 0.926 | 0.869 | – | – | –
B. subtilis 168 [3], partner 0.078 µg/mL | 0.89 | 0.892 | 0.867 | – | – | –
B. subtilis 168 [3], partner 0.156 µg/mL | 0.904 | 0.905 | 0.885 | – | – | –
S. aureus Newman [1], partner 0.039 µg/mL | 0.932 | 0.984 | 0.917 | – | – | –
S. aureus Newman [1], partner 0.078 µg/mL | ≥ 1 | 0.988 | 0.987 | – | – | –
S. aureus Newman [1], partner 0.156 µg/mL | ≥ 1 | 0.997 | 0.991 | – | – | –
S. pneumoniae D39V [2], partner 0.325 µg/mL | – | – | – | 0.973 | 0.993 | 0.976
S. pneumoniae D39V [2], partner 0.65 µg/mL | – | – | – | 0.959 | 0.945 | 0.963
S. pneumoniae D39V [2], partner 1.3 µg/mL | – | – | – | 0.963 | 0.956 | 0.972
S. pneumoniae D39V [2], partner 2.6 µg/mL | – | – | – | 0.911 | 0.903 | 0.956

fitness, B. subtilis 168 [3], one replicate
Conditions | partner 0.039 µg/mL | partner 0.078 µg/mL | partner 0.125 µg/mL | partner 0.156 µg/mL | partner 0.25 µg/mL | partner 0.5 µg/mL
first compound 0.125 µg/mL | – | – | 0.985 | – | 0.902 | 0.899
first compound 0.25 µg/mL | – | – | 0.974 | – | 0.926 | 0.981
first compound 0.5 µg/mL | – | – | 0.955 | – | 0.944 | 0.989
first compound 1 µg/mL | 0.759 | 0.732 | – | 0.731 | – | –

Conditions | Bliss interaction score
B. subtilis 168 [6] | -0.0609
S. aureus DSM 20231 | 0.0697
S. aureus Newman [4] | -0.037
S. pneumoniae D39V [5] | 0.0991

CCCCCCCCCC(=O)N[C@@H](Cc1c[nH]c2ccccc12)C(=O)N[C@H](CC(N)=O)C(=O)N[C@@H](CC(=O)O)C(=O)N[C@@H]1C(=O)NCC(=O)N[C@@H](CCCN)C(=O)N[C@@H](CC(=O)O)C(=O)N[C@H](C)C(=O)N[C@@H](CC(=O)O)C(=O)NCC(=O)N[C@H](CO)C(=O)N[C@@H]([C@H](C)CC(=O)O)C(=O)N[C@@H](CC(=O)c2ccccc2N)C(=O)O[C@@H]1C [Daptomycin] + CN[C@@H]1[C@H](O[C@H]2[C@H](O[C@H]3[C@H](O)[C@@H](O)[C@H](N=C(N)N)[C@@H](O)[C@@H]3N=C(N)N)O[C@@H](C)[C@]2(O)C=O)O[C@@H](CO)[C@H](O)[C@H]1O [Streptomycin]
fitness
Conditions | partner 1 µg/mL | partner 2 µg/mL | partner 4 µg/mL | partner 8 µg/mL
B. subtilis 168 [3], first compound 0.125 µg/mL | – | 0.954 | 0.651 | 0.0465
B. subtilis 168 [3], first compound 0.25 µg/mL | – | 0.977 | – | 0.0589
B. subtilis 168 [3], first compound 0.5 µg/mL | – | 0.923 | – | 0.0321
S. aureus Newman [1], first compound 0.125 µg/mL | 0.971 | 0.988 | – | –
S. aureus Newman [1], first compound 0.25 µg/mL | 0.964 | 0.985 | – | –
S. aureus Newman [1], first compound 0.5 µg/mL | 0.986 | 0.973 | – | –
S. pneumoniae D39V [2], first compound 1 µg/mL | – | 0.926 | 0.902 | 0.825
S. pneumoniae D39V [2], first compound 2 µg/mL | – | 0.955 | 0.909 | 0.876
S. pneumoniae D39V [2], first compound 4 µg/mL | – | 0.95 | 0.924 | 0.86

fitness, one replicate
Conditions | first compound 1 µg/mL | first compound 2 µg/mL | first compound 4 µg/mL
B. subtilis 168 [3], partner 2 µg/mL | 0.654 | – | –
B. subtilis 168 [3], partner 4 µg/mL | 0.245 | – | –
B. subtilis 168 [3], partner 8 µg/mL | 0.0183 | – | –
S. pneumoniae D39V [2], partner 16 µg/mL | 0.795 | 0.804 | 0.773

Conditions | Bliss interaction score
B. subtilis 168 [6] | -0.0625
S. aureus DSM 20231 | 0.0838
S. aureus Newman [4] | 0.0589
S. pneumoniae D39V [5] | 0.103

CCN(CC)CCOC(=O)c1ccc(N)cc1 [Procaine] + CN(C)c1cc(NC(=O)CNC(C)(C)C)c(O)c2c1C[C@H]1C[C@H]3[C@H](N(C)C)C(O)=C(C(N)=O)C(=O)[C@@]3(O)C(O)=C1C2=O [Tigecycline]
fitness
Conditions | first compound 85.5 µg/mL | first compound 171 µg/mL | first compound 342 µg/mL
B. subtilis 168 [3], partner 0.039 µg/mL | 0.94 | 0.978 | 0.929
B. subtilis 168 [3], partner 0.078 µg/mL | 0.916 | 0.96 | 0.858
B. subtilis 168 [3], partner 0.156 µg/mL | 0.895 | 0.909 | 0.856
S. aureus Newman [1], partner 0.039 µg/mL | 0.955 | 0.965 | 0.928
S. aureus Newman [1], partner 0.078 µg/mL | ≥ 1 | 0.986 | 0.996
S. aureus Newman [1], partner 0.156 µg/mL | ≥ 1 | ≥ 1 | 0.991
S. pneumoniae D39V [2], partner 0.65 µg/mL | 0.974 | 0.993 | 1
S. pneumoniae D39V [2], partner 1.3 µg/mL | 0.946 | 0.952 | 0.957
S. pneumoniae D39V [2], partner 2.6 µg/mL | 0.927 | 0.935 | 0.932

fitness, B. subtilis 168 [3], one replicate
Conditions | first compound 85.5 µg/mL | first compound 171 µg/mL | first compound 342 µg/mL
partner 0.125 µg/mL | ≥ 1 | 0.985 | 0.974
partner 0.25 µg/mL | 0.891 | 0.917 | 0.917
partner 0.5 µg/mL | 0.913 | 0.916 | 0.905

Conditions | Bliss interaction score
B. subtilis 168 [6] | -0.0701
S. aureus DSM 20231 | 0.0953
S. aureus Newman [4] | 0.0571
S. pneumoniae D39V [5] | 0.0455

CCN(CC)CCOC(=O)c1ccc(N)cc1 [Procaine] + CN[C@@H]1[C@H](O[C@H]2[C@H](O[C@H]3[C@H](O)[C@@H](O)[C@H](N=C(N)N)[C@@H](O)[C@@H]3N=C(N)N)O[C@@H](C)[C@]2(O)C=O)O[C@@H](CO)[C@H](O)[C@H]1O [Streptomycin]
fitness
Conditions | first compound 85.5 µg/mL | first compound 171 µg/mL | first compound 342 µg/mL
B. subtilis 168 [3], partner 2 µg/mL | 0.914 | 0.921 | 0.94
B. subtilis 168 [3], partner 8 µg/mL | 0.0423 | 0.0261 | 0.0278
S. aureus Newman [1], partner 1 µg/mL | 0.994 | 0.963 | 0.957
S. aureus Newman [1], partner 2 µg/mL | 0.983 | 0.96 | 0.985
S. pneumoniae D39V [2], partner 2 µg/mL | 0.985 | 0.988 | 0.933
S. pneumoniae D39V [2], partner 4 µg/mL | 0.984 | 0.984 | 0.945
S. pneumoniae D39V [2], partner 8 µg/mL | 0.952 | 0.92 | 0.9

S. pneumoniae D39V [2], partner 16 µg/mL, one replicate
Conditions | fitness
first compound 85.5 µg/mL | 0.815
first compound 171 µg/mL | 0.759
first compound 342 µg/mL | 0.75

Conditions | Bliss interaction score
B. subtilis 168 [6] | -0.117
S. aureus DSM 20231 | 0.0982
S. aureus Newman [4] | 0.0657
S. pneumoniae D39V [5] | 0.0529
